# According to patent US20240317683A1, “METHODS OF TREATING MOOD DISORDERS” (priority 2020, published 2024):
# Counter-ions that a name gives are not always drawn.
# What was measured:
# [1] = system: C57BL/6 mice; test: Marble burying test (MBT) in mice; assay type: in vivo; settings: SC, 30 minutes prior, 30-minute period, vs. vehicle
# Experimental: Animals. Adult male C57BL/6 mice, aged 8-10 weeks (body weight 20-25 g), were used in these experiments. Animals were housed under controlled temperatures and 12-hour light/dark cycles (lights on between 07:00-19:00 h), with ad libitum food and water. All efforts were made to minimize suffering.
# Drugs and Drug Administration. Compound 4 was prepared as described above. Desipramine HCl was commercially obtained. The test compound, vehicle, and the positive control desipramine were administered subcutaneously (SC), with doses calculated based on the freebase. Normal saline was used as the vehicle. All compounds were administered at a volume of 10 ml/kg. All treatments were administered 30 minutes prior to the start of behavioral testing. Group size was n=9-10 per treatment.
# Marble Burying Test (MBT). […] Mice were handled for about 2 min daily for the 3 days prior to the beginning of the experimental procedure. Twenty glass marbles (16 mm diameter) were placed at equal distances in a 5×4 pattern on a 5-cm layer of corn-cob bedding, with marbles at least 2 cm from the borders of the cage. The total number of marbles buried were counted in three 10-minute time bins (total 30 minutes). A marble was considered buried when it was >⅔ covered by bedding material.
# Statistical Analysis. The data points shown are the mean ±standard error of the mean (SEM). Analysis was performed using GraphPad Prism 6. […]
# [2] = system: C57BL/6 mice; test: Open field locomotor activity in mice; assay type: in vivo; settings: SC
# Experimental: Animals. Male C57BL/6 mice, 5-8 weeks of age, (body weight 25-30 g; Envigo, Indianapolis, IN, USA) were housed 5 per polycarbonate tub with soft bedding in a temperature-and humidity-controlled vivarium. Mice were maintained under a 12-h light/dark cycle with lights on at 06:00. Food and water were available ad libitum. Animals acclimated to the vivarium for 1 week prior to experimental manipulations.
# Drugs and Drug Administration. Compound 4 was prepared as described above. Compound 4 and saline vehicle were administered subcutaneously (SC), with doses calculated based on the HCl salt. Normal saline was used as the vehicle. All compounds were administered at a volume of 10 mL/kg. Compound 4 or vehicle were administered immediately before the start of the recording session.
# Locomotor Activity. Locomotor activity was measured in experimental cages (length×width x height: 560×560×330 mm) by an animal movement analysis system SCANET MV-40 ([…] Co., Ltd., Toyama, Japan). The cumulative activity was recorded for 30 minutes prior to drug administration to establish a baseline, and then animals were recorded for 60 minutes immediately after drug administration. Cages were cleaned between testing sessions.
# Statistical Analysis. The total number of beam breaks were summed into 5-minute time bins. The data points shown are the mean ±standard error of the mean (SEM). […]
structure (smiles),measurement,setting,value
"CCN(C)CCc1c[nH]c2ccc(F)cc12 [Compound 4, N-ethyl-2-(5-fluoro-1H-indol-3-yl)-N-methylethan-1-amine hydrochloride]",number of marbles buried,[1],dose-dependent reduction
same,total locomotor activity in the open field,[2]; 60 minutes after administration,dose-dependent decrease
same,"locomotor activity, highest dose group",[2]; highest dose group,near complete reduction in activity
